Read-outs that look alike come from different tables or passages of the source. Starred links: 1 amine or outer side, 2 acyl side, 3 side chain; linkers in the order of their positions; H or OH if unused. Non-standard residues stand in square brackets, D forms with d. Residues, ends and D or L forms follow the SMILES beside them. *: point of attachment. DOTAGA = O=C(O)CN1CCN(CC(=O)O)CCN(C(CCC(=O)*)C(=O)O)CCN(CC(=O)O)CC1; Benzoyl(4-SiFtBu2) = CC(C)(C)[Si](F)(c1ccc(C(=O)*)cc1)C(C)(C)C; DOTA = O=C(O)CN1CCN(CC(=O)O)CCN(CC(=O)*)CCN(CC(=O)O)CC1; PEG12 = NCCOCCOCCOCCOCCOCCOCCOCCOCCOCCOCCOCCOCCC(=O)O; d(γGlu) = O=C(O)[C@@H](CCC(=O)[*:2])N[*:1]; 1Nal = N[C@@H](Cc1cccc2ccccc12)C(=O)O; PEG5 = NCCOCCOCCOCCOCCOCCC(=O)O; NMeNle = CCCC[C@H](NC)C(=O)O; Nle = CCCC[C@H](N)C(=O)O; dDap = NC[C@@H](N)C(=O)O
Key:
CCK-2R = target: T1, CCK-2R (Rattus norvegicus, UniProt P30553); experiment: Determination of IC50: CCK-2R affinity on AR4-2J cells, competition with [^177Lu]Lu-DOTA-PP-F11N; type: binding
T1 construct: The CCK-2R expressing rat pancreatic tumor cells AR4-2J; host or cells: AR4-2J rat pancreatic tumor cells
T1 sequence (P30553 1-452): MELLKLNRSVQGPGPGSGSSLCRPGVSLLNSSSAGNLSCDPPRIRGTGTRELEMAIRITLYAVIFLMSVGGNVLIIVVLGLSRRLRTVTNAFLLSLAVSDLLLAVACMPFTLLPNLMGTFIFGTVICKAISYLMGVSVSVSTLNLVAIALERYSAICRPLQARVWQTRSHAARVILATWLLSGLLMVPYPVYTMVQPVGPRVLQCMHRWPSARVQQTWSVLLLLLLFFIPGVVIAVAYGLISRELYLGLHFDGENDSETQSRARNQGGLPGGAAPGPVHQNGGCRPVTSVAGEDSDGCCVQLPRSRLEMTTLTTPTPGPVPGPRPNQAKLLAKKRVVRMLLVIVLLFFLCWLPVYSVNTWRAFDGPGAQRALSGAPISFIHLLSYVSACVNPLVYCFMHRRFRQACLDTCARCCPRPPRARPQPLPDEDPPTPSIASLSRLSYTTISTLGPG
Outline: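 Competitive displacement of 0.3 pmol/well [177Lu]Lu-DOTA-PP-F11N by compounds (10^-10 to 10^-4 M) on AR4-2J cells in BSA-supplemented medium, 3 h at 37 °C. Free label was collected from medium plus PBS rinse, and cell-bound label was recovered with 1 M NaOH, both measured by γ-counter. Each IC50 was determined twice, in triplicate.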

[1] = n-Octanol-PBS distribution coefficient (logD7.4); type: physicochemical; settings: pH = 7.4, ^177Lu-labeled
Procedure: Approximately 1 MBq of the labeled tracer was dissolved in 1 mL of a 1/1 mixture (v/v) of phosphate buffered saline (PBS, pH = 7.4) and n-octanol in an Eppendorf tube (1.5 mL). After vigorous mixing of the suspension for 3 min at rt, the vial was centrifuged at 9,000 rpm for 5 min (Biofuge 15, Heraeus Sepatech, Osterode, Germany) and 200 µL aliquots of both layers were measured in a γ-counter. The experiment was repeated at least five times.

[2] = read-out: IC50 [nM] (n = 3), ^natLu-labeled; AR4-2J cells; ^natLu-labeled
[3] = AR4-2J cells; ^natLu-labeled; read-out: IC50 [nM] (n = 3), ^natLu-labeled

IC50 (CCK-2R; [3]) | SMILES | IC50 (CCK-2R; [2]) | logD7.4 (n ≥ 5), ^177Lu-labeled [1]
5.6 ± 0.5 nM | CCCC[C@@H](C(=O)N[C@@H](CC(=O)O)C(=O)N[C@@H](Cc1cccc2ccccc12)C(N)=O)N(C)C(=O)[C@H](Cc1c[nH]c2ccccc12)NC(=O)CNC(=O)[C@H](Cc1ccc(O)cc1)NC(=O)[C@H](C)NC(=O)CNC(=O)CN1CCN(CC(=O)O)CCN(CC(=O)O)CCN(CC(=O)O)CC1 [DOTA-CCK-57, DOTA-Gly-Ala-Tyr-Gly-Trp-(N-Me)Nle-Asp-1-Nal-NH2] ({DOTA}-GAYGW[NMeNle]D[1Nal]-NH2) |  | −1.26 ± 0.08
6.7 ± 0.8 nM | CCCC[C@@H](C(=O)N[C@@H](CC(=O)O)C(=O)N[C@@H](Cc1cccc2ccccc12)C(N)=O)N(C)C(=O)[C@H](Cc1c[nH]c2ccccc12)NC(=O)CCOCCOCCOCCOCCOCCNC(=O)CC[C@@H](NC(=O)CN1CCN(CC(=O)O)CCN(CC(=O)O)CCN(CC(=O)O)CC1)C(=O)O [DOTA-CCK-78, DOTA-γ-glu-(PEG)4-Trp-(N-Me)Nle-Asp-1-Nal-NH2] ({DOTA-d(γGlu)-PEG5}-W[NMeNle]D[1Nal]-NH2) |  | −2.61 ± 0.06

The next lines start with the molecule.

SMILES | IC50 (CCK-2R; [3]) | IC50 (CCK-2R; [2]) | logD7.4 (n ≥ 5), ^177Lu-labeled [1]
CCCC[C@H](NC(=O)[C@H](Cc1c[nH]c2ccccc12)NC(=O)CNC(=O)[C@H](Cc1ccc(O)cc1)NC(=O)[C@H](C)NC(=O)CC[C@@H](NC(=O)CC[C@@H](NC(=O)CC[C@@H](NC(=O)CC[C@@H](NC(=O)CC[C@@H](NC(=O)[C@@H](CNC(=O)c1ccc([Si](F)(C(C)(C)C)C(C)(C)C)cc1)NC(=O)CC[C@@H](NC(=O)CCC(C(=O)O)N1CCN(CC(=O)O)CCN(CC(=O)O)CCN(CC(=O)O)CC1)C(=O)O)C(=O)O)C(=O)O)C(=O)O)C(=O)O)C(=O)O)C(=O)N[C@@H](CC(=O)O)C(=O)N[C@@H](Cc1ccccc1)C(N)=O (stereo partly drawn) [DOTAGA-MG-SiFA-18, DOTAGA-γ-glu-[dap(SiFA)^1]γ-F11N] ({DOTAGA-d(γGlu)}-[dDap](Benzoyl(4-SiFtBu2))[d(γGlu)][d(γGlu)][d(γGlu)][d(γGlu)][d(γGlu)]AYGW[Nle]DF-NH2) |  | 33 ± 11.1 nM | −2.50 ± 0.02
CCCC[C@H](NC(=O)[C@H](Cc1c[nH]c2ccccc12)NC(=O)CNC(=O)[C@H](Cc1ccc(O)cc1)NC(=O)[C@H](C)NC(=O)[C@@H](CCC(=O)O)NC(=O)[C@@H](CCC(=O)O)NC(=O)[C@@H](CCC(=O)O)NC(=O)[C@@H](CCC(=O)O)NC(=O)[C@@H](CCC(=O)O)NC(=O)[C@@H](CCC(=O)O)NC(=O)[C@@H](CCC(=O)O)NC(=O)[C@@H](CCC(=O)O)NC(=O)[C@@H](CNC(=O)c1ccc([Si](F)(C(C)(C)C)C(C)(C)C)cc1)NC(=O)CCC(C(=O)O)N1CCN(CC(=O)O)CCN(CC(=O)O)CCN(CC(=O)O)CC1)C(=O)N[C@@H](CC(=O)O)C(=O)N[C@@H](Cc1ccccc1)C(N)=O (stereo partly drawn) [DOTAGA-MG-SiFA-21, DOTAGA-dap(SiFA)-(glu)2-F11N] ({DOTAGA}-[dDap](Benzoyl(4-SiFtBu2))[dE][dE][dE][dE][dE][dE][dE][dE]AYGW[Nle]DF-NH2) |  | 55.3 ± 7.8 nM | −2.84 ± 0.04
CCCC[C@H](NC(=O)[C@H](Cc1c[nH]c2ccccc12)NC(=O)CNC(=O)[C@H](Cc1ccc(O)cc1)NC(=O)[C@H](C)NC(=O)CC[C@@H](NC(=O)CC[C@@H](NC(=O)CC[C@@H](NC(=O)CC[C@@H](NC(=O)[C@@H](CNC(=O)c1ccc([Si](F)(C(C)(C)C)C(C)(C)C)cc1)NC(=O)CC[C@@H](NC(=O)CC[C@@H](NC(=O)CCC(C(=O)O)N1CCN(CC(=O)O)CCN(CC(=O)O)CCN(CC(=O)O)CC1)C(=O)O)C(=O)O)C(=O)O)C(=O)O)C(=O)O)C(=O)O)C(=O)N[C@@H](CC(=O)O)C(=O)N[C@@H](Cc1ccccc1)C(N)=O (stereo partly drawn) [DOTAGA-MG-SiFA-17, DOTAGA-γ-glu-[dap(SiFA)^2]γ-F11N] ({DOTAGA-d(γGlu)-d(γGlu)}-[dDap](Benzoyl(4-SiFtBu2))[d(γGlu)][d(γGlu)][d(γGlu)][d(γGlu)]AYGW[Nle]DF-NH2) |  | 51.3 ± 9.3 nM | −2.26 ± 0.05
CCCC[C@@H](C(=O)N[C@@H](CC(=O)O)C(=O)N[C@@H](Cc1cccc2ccccc12)C(N)=O)N(C)C(=O)[C@H](Cc1c[nH]c2ccccc12)NC(=O)CCOCCOCCOCCOCCOCCOCCOCCOCCOCCOCCOCCOCCNC(=O)CC[C@@H](NC(=O)CN1CCN(CC(=O)O)CCN(CC(=O)O)CCN(CC(=O)O)CC1)C(=O)O [DOTA-CCK-81, DOTA-γ-glu-(PEG)11-Trp-(N-Me)Nle-Asp-1-Nal-NH2] ({DOTA-d(γGlu)-PEG12}-W[NMeNle]D[1Nal]-NH2) | 6.3 ± 0.7 nM |  | −2.47 ± 0.10

Reference: patent publication EP4631959A2, “NOVEL MINIGASTRIN-DERIVED CHOLECYSTOKININ 2 RECEPTOR BINDING MOLECULES FOR IMAGING AND TARGETED RADIOTHERAPY” (priority 2022, dated 2024)
